# Assay results as given in publication PMC5613016, “GRL-09510, a Unique P2-Crown-Tetrahydrofuranylurethane -Containing HIV-1 Protease Inhibitor, Maintains Its Favorable Antiviral Activity against Highly-Drug-Resistant HIV-1 Variants in vitro” (Scientific Reports, 2017).
# Legend:
# Assay type in all cases: cell-based
# HIV-1_9510 ^R 36P = assay: p24 production inhibition in MT-4 cells
# Method in brief: (§1)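 MT-2 cells (10^4/ml) infected with 100 TCID50 of HIV-1LAI or HIV-2ROD were cultured with compound for 7 days at 37 °C, then read by MTT. PHA-PBMC (10^6/ml, single donor per experiment) received 50 TCID50 clinical HIV-1 with 10-fold compound dilutions; MT-4 cells (10^5/ml) received 100 TCID50; day-7 supernatant p24 measured by chemiluminescent immunoassay.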
# HIV-1APV ^R 5μM = assay: p24 production inhibition in MT-4 cells
# Method in brief: as §1
# HIV-1NL4-3 [1] = assay: p24 production inhibition in MT-4 cells; conditions: Human immunodeficiency virus 1, MT4, MT-4 cells
# Method in brief: (§2)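 PBMC: PHA-stimulated, 10^6/ml, one donor/experiment, 50 TCID50 isolate, 10-fold drug series, p24 day 7. MT-4: 10^5/ml, 100 TCID50, 37 °C, p24 day 7. MT-2: 10^4/ml, 100 TCID50, 7 d, MTT 2 h.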
# HIV-1ATV ^R 5μM = assay: p24 production inhibition in MT-4 cells
# Method in brief: as §2
# HIV-1_9510 ^R P36 = assay: Viral growth kinetics in MT-4 cells (p24)
# Procedure: (§3) The GRL-09510-resistant variant at passage 36 was propagated in fresh MT-4 cells without GRL-09510 for 7 days, and aliquoted HIV-1_9510 ^R P36 viral stocks were stored at −80 °C. MT-4 cells (3.2 × 10^5) were exposed to the HIV-1_9510 ^R P36 or wild-type HIV-1NL4-3 preparation containing 10 ng/ml p24 in 6-well plates for 3 hours, and the infected MT-4 cells were washed with fresh medium, divided into 4 fractions and each cultured with or without GRL-09510 (final concentration of MT-4 cells 10^4/ml, and drug concentrations 0, 0.01, 0.1 and 1 μΜ). The amounts of p24 were measured every two days for up to 7 days.
# HIV-1NL4-3 [2] = assay: Viral growth kinetics in MT-4 cells (p24); conditions: as low as 0.01 µM, 7 days
# Procedure: as §3
# [3] = number in parentheses, compared to HIV-1NL4-3
compound,measurement,setting,value
COc1ccc(S(=O)(=O)N(CC(C)C)CC(O)C(Cc2ccccc2)NC(=O)OC2C3COC4OCC2C4C3)cc1 (stereo not shown) [GRL-09510],EC50,"HIV-1_9510 ^R 36P; Human immunodeficiency virus 1, MT4, MT-4 cells, p24 assay, read-out: EC50 HIV-1_9510 ^R 36P",24 ± 2 nM
same,fold change of EC50 HIV-19510RP36,"HIV-1_9510 ^R 36P; compared to EC50 for HIV-1NL4-3, Supplemental Table 3",11
same,fold change of EC50 HIV-1_9510 ^R 36P,HIV-1_9510 ^R 36P; compared to the value against HIV-1NL4-3,11
same,fold change in EC50 HIV-1APVR5M,"HIV-1APV ^R 5μM; compared to HIV-1NL4-3, Supplemental Table 4",2
same,fold change of EC50 HIV-1APV ^R 5μM,HIV-1APV ^R 5μM; [3],2
same,EC50,"HIV-1APV ^R 5μM; read-out: EC50 HIV-1APV ^R 5μM, MT-4 cells, p24 Gag production",4.8 ± 0.1 nM
same,EC50,"HIV-1NL4-3 [1]; p24 Gag production, Table 3",2.8 ± 0.7 nM
same,EC50,"HIV-1NL4-3 [1]; p24 assay, Table 4, four to six independent experiments",2.2 ± 0.9 nM
same,fold change of EC50 HIV-1ATV ^R 5μM,HIV-1ATV ^R 5μM; [3],1
same,EC50,"HIV-1ATV ^R 5μM; read-out: EC50 HIV-1ATV ^R 5μM, MT-4 cells, p24 Gag production",3.7 ± 0.9 nM
same,replication of HIV-1_9510 ^R P36 in the presence of drug,HIV-1_9510 ^R P36; 1 µM,completely suppressed
same,growth of HIV-1_9510 ^R P36 in the presence of drug,"HIV-1_9510 ^R P36; 0.01 and 0.1 µM, 7-day culture",propagated
same,growth of HIV-1NL4-3 in the presence of drug,HIV-1NL4-3 [2],failed to grow
